Laboratory results published in publication PMC3690532 (Structure (London, England : 1993), 2013).

Target: T1, S. enterica MTAN (SeMTAN) (Salmonella choleraesuis, UniProt Q57T48)
T1 sequence (Q57T48 1-232): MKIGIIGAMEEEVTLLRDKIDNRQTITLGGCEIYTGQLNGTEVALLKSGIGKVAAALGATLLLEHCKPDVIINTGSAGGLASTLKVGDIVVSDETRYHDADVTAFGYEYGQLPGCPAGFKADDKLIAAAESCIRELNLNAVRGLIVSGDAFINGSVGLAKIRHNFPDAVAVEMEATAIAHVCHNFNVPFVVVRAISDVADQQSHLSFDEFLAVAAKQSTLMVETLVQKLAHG
Experiment: slow-onset inhibition constant
Format: biochemical
Details: for ΔG (Gibbs free energy): generated from Ki* using ΔG = RT ln Ki*; for ΔΔG: methylthio-DADMe-ImmA as reference

In the case of `Nc1ncnc2c(CN3CC(O)C(CSCCOCCO)C3)c[nH]c12` (stereo not drawn) [2-(2-hydroxyethoxy)ethylthio-DADMe-ImmA], the “ΔG (Gibbs free energy)” value is reported as -15.4 ± 0.1 kcal/mol and the ΔΔG is reported as 0 kcal/mol.
In the case of `Nc1ncnc2c(CN3CC(O)C(CSCCO)C3)c[nH]c12` (stereo not drawn) [2-Hydroxyethylthio-DADMe-ImmA], the “ΔG (Gibbs free energy)” value is reported as -14.9 ± 0.1 kcal/mol and the ΔΔG is reported as 0.5 kcal/mol.
In the case of `Nc1ncnc2c(CN3CC(O)C(CSCCCO)C3)c[nH]c12` (stereo not drawn) [3-Hydroxypropylthio-DADMe-ImmA], the “ΔG (Gibbs free energy)” value is reported as -15.2 ± 0.2 kcal/mol and the ΔΔG is reported as 0.2 kcal/mol.
In the case of `Nc1ncnc2c(CN3CC(O)C(CSCCCCO)C3)c[nH]c12` (stereo not drawn) [4-Hydroxybutylthio-DADMe-ImmA], the “ΔG (Gibbs free energy)” value is reported as -14.8 ± 0.1 kcal/mol and the ΔΔG is reported as 0.6 kcal/mol.
For `CCCCSC[C@H]1CN(Cc2c[nH]c3c(N)ncnc23)C[C@@H]1O` [Butylthio-DADMe-ImmA, reference compound], the “ΔG (Gibbs free energy)” value was -16.1 ± 0.2 kcal/mol and the ΔΔG was -0.7 kcal/mol.
For `Nc1ncnc2c(CN3C[C@H](CSCC[C@H](N)C(=O)O)[C@@H](O)C3)c[nH]c12` [Homocysteine-DADMe-ImmA, reference compound], the “ΔG of binding higher when compared to MT-, DiEGT- and BuT-DADMe-ImmA” value (difference versus the three inhibitors) was 1.5 to 2.2 kcal/mol, the “ΔG (Gibbs free energy)” value was -13.9 ± 0.1 kcal/mol and the ΔΔG was 1.5 kcal/mol.
In the case of `CSC[C@H]1CN(Cc2c[nH]c3c(N)ncnc23)C[C@@H]1O` [Methylthio-DADMe-ImmA, reference compound], the “ΔG (Gibbs free energy)” value is reported as -15.4 ± 0.1 kcal/mol and the ΔΔG is reported as 0 kcal/mol.
